Measured values published in patent US8546343B2, “Aminoglycoside antibiotics targeting bacterial 16S ribosomal RNA” (Eidgenoessische Technische Hochschule Zurich, priority 2007, dated 2013).

Tests used:
Type in all cases: cell-based, Mycobacterium smegmatis
[1] = system: M. smegmatis ΔrrnB 1491A (16S rRNA position 1491 A, eukaryotic cytosolic ribosomes); assay: MIC, recombinant M. smegmatis with mutant ribosomes 1491A; conditions: M. smegmatis ΔrrnB 1491A mutant ribosomes; 72 h at 37° C.
From the text: (§1) The strain used for introduction/selection of mutational alterations was a genetically modified derivative of Mycobacterium smegmatis carrying a single functional chromosomal rRNA operon (Sander et al. Mol. Microbiol. 1996, 22: 841-848). This strain, termed M. smegmatis rrn^−, allowed for the selection of mutational rRNA gene alterations using a plasmid carrying the rRNA gene with the respective mutational alteration.)
(§2) The rRNA gene carried on the plasmid encodes either the complete rRNA operon (Prammananan et al. Antimicrob. Agents Chemother. 1999, 43: 447-453) or a non-functional rRNA gene fragment of approximately 1.0 kb (Pfister et al. Antimicrob. Agents Chemother. 2003, 47: 1496-1502). PCR-mutagenesis in vitro was used to generate the mutagenized rRNA gene fragment. In the case of a partial rRNA gene fragment the mutagenized rRNA gene fragment was cloned into vectors pMV261 or pMV361 (Sander et al. Mol. Microbiol. 2002, 46: 1295-1304; Pfister et al. Antimicrob. Agents Chemother. 2003, 47: 1496-1502) to result in vectors carrying a partial rRNA gene fragment of approximately 1.0 kb with the mutational alteration introduced. In the case of plasmids carrying the complete rRNA operon the mutagenized rRNA gene fragment obtained by PCR was cloned into vectors pMV361 rRNA or pMV261 rRNA using appropriate restriction sites (Prammananan et al. Antimicrob. Agents Chemother. 1999, 43: 447-453). Vectors pMV361 rRNA and pMV261 rRNA carried a complete copy of the rRNA operon from M. smegmatis (Sander et al. Mol. Microbiol. 1997, 26: 469-480). Introduction of mutations into the plasmid encoded rRNA was confirmed by sequencing.
(§3) The single rRNA allelic derivative of M. smegmatis, i.e. M. smegmatis rrn, was used for transformation of the plasmids. The strain was made electro-competent and transformed according to standard techniques and as described previously (Sander et al. Mol. Microbiol. 1997, 26: 469-484). Following primary selection, the plasmid-encoded mutational rRNA gene alteration was transferred into the single chromosomal rRNA operon by means of RecA-mediated homologous recombination (Prammananan at al. Antimicrob. Agents Chemother. 1999, 43: 447-453). Introduction of the mutational rRNA gene alteration into the single functional chromosomal rRNA operon by gene conversion was confirmed by sequence determination.
(§4) Ribosomal drug susceptibility was studied by determining the minimal inhibitory concentrations, as described in detail in Pfister et al. 2003 and 2005 (see above).
(§5) The recombinants carrying the respective mutational alterations in the functional rRNA operon were colony-purified and subjected to determinations of minimal inhibitory concentrations (MIC) to determine ribosomal drug susceptibility. Cultures from single colonies were grown in LB medium supplemented with 0.05% Tween 80 and used for MIC tests in a microtiter plate format. Starting cultures contained 200 μl of bacterial cells at an optical density of 0.025 at 600 nm, and the respective drug was added in twofold series of dilution.
(§6) Key nucleotides which distinguish the prokaryotic from the eukaryotic decoding site are 16S rRNA positions 1408 (bacterial ribosome: A, eukaryotic cytosolic ribosomes: G) and 1491 (bacterial ribosomes: G, eukaryotic cytosolic ribosomes: A, eukaryotic mitochondrial ribosome: C).

[2] = system: M. smegmatis ΔrrnB (bacterial ribosomes); assay: MIC, recombinant M. smegmatis with bacterial (wild-type) ribosomes; conditions: 72 h at 37° C.
From the text: as §1, §2, §3, §4, §5, §6

[3] = system: M. smegmatis ΔrrnB 1408G (16S rRNA position 1408 G, eukaryotic cytosolic ribosomes); assay: MIC, recombinant M. smegmatis with mutant ribosomes 1408G; conditions: M. smegmatis ΔrrnB 1408G mutant ribosomes; 72 h at 37° C.
From the text: as §1, §2, §3, §4, §5, §6

[4] = system: M. smegmatis ΔrrnB 1491C (16S rRNA position 1491 C, eukaryotic mitochondrial ribosome); assay: MIC, recombinant M. smegmatis with mutant ribosomes 1491C; conditions: M. smegmatis ΔrrnB 1491C mutant ribosomes; 72 h at 37° C.
From the text: as §1, §2, §3, §4, §5, §6

SMILES	minimal inhibitory concentrations ΔrrnB 1491A [1] [µg/mL]	minimal inhibitory concentrations ΔrrnB [2] [µg/mL]	minimal inhibitory concentrations ΔrrnB 1408G [3]	minimal inhibitory concentrations ΔrrnB 1491C [4]
CC(=O)O.CC(=O)O.CC(=O)O.CC(=O)O.COc1cccc(C2OCC3OC(OC4C(N)CC(N)C(O)C4OC4OC(CO)C(OC5OC(CN)C(O)C(O)C5N)C4O)C(N)C(O)C3O2)c1 (centres unmarked) [Compound 5.3, 4′,6′-O-m-Methoxybenzylideneparomomycin tetraacetate]	512	4 to 8	256 to 512 µg/mL	>512 µg/mL
COc1cc(OC)cc([C@@H]2OC[C@H]3O[C@H](O[C@H]4[C@H](O[C@@H]5O[C@H](CO)[C@@H](O[C@H]6O[C@@H](CN)[C@@H](O)[C@H](O)[C@H]6N)[C@H]5O)[C@@H](O)[C@H](N)C[C@@H]4N)[C@H](N)[C@@H](O)[C@@H]3O2)c1 [Compound 5.13, 4′,6′-O-3,5-Dimethoxybenzylideneparomomycin]	>512	32	>512 µg/mL	>512 µg/mL
NC[C@@H]1O[C@H](O[C@H]2[C@@H](O)[C@H](O[C@@H]3[C@@H](O)[C@H](N)C[C@H](N)[C@H]3O[C@H]3O[C@@H]4CO[C@@H](c5cccc(Cl)c5)O[C@H]4[C@H](O)[C@H]3N)O[C@@H]2CO)[C@H](N)[C@@H](O)[C@@H]1O [Compound 5.15, 4′,6′-O-m-chlorobenzylideneparomomycin]	512	2 to 4	256 to 512 µg/mL	512 µg/mL
NC[C@@H]1O[C@H](O[C@H]2[C@@H](O)[C@H](O[C@@H]3[C@@H](O)[C@H](N)C[C@H](N)[C@H]3O[C@H]3O[C@@H]4COC(c5ccco5)O[C@H]4[C@H](O)[C@H]3N)O[C@@H]2CO)[C@H](N)[C@@H](O)[C@@H]1O (some centres unmarked) [Compound 5.21, 4′,6′-O-2-Furanylideneparomomycin]	>512	8 to 16	>512 µg/mL	>512 µg/mL
NC[C@@H]1O[C@H](O[C@H]2[C@@H](O)[C@H](O[C@@H]3[C@@H](O)[C@H](N)C[C@H](N)[C@H]3O[C@H]3O[C@H](CO)[C@@H](OCOCc4ccccc4)[C@H](O)[C@H]3N)O[C@@H]2CO)[C@H](N)[C@@H](O)[C@@H]1O [Compound 19d, 4′-Benzyloxymethylparomomycin]	>512	16	>512 µg/mL	>512 µg/mL
N#Cc1ccc([C@@H]2OC[C@H]3O[C@H](O[C@H]4[C@H](O[C@@H]5O[C@H](CO)[C@@H](O[C@H]6O[C@@H](CN)[C@@H](O)[C@H](O)[C@H]6N)[C@H]5O)[C@@H](O)[C@H](N)C[C@@H]4N)[C@H](N)[C@@H](O)[C@@H]3O2)cc1 [Compound 5.10, 4,6′-O-p-Cyanobenzylideneparomomycin]	>512	16 to 32	>512 µg/mL	>512 µg/mL
NC[C@@H]1O[C@H](O[C@H]2[C@@H](O)[C@H](O[C@@H]3[C@@H](O)[C@H](N)C[C@H](N)[C@H]3O[C@H]3O[C@@H]4CO[C@@H](c5cc(Cl)cc(Cl)c5)O[C@H]4[C@H](O)[C@H]3N)O[C@@H]2CO)[C@H](N)[C@@H](O)[C@@H]1O [Compound 5.9, 4,6′-O-3,5-Dichlorobenzylideneparomomycin]	128 to 256	4	128 to 256 µg/mL	128 µg/mL
COc1ccc(OC)c(C2OC[C@H]3O[C@H](O[C@H]4[C@H](O[C@@H]5O[C@H](CO)[C@@H](O[C@H]6O[C@@H](CN)[C@@H](O)[C@H](O)[C@H]6N)[C@H]5O)[C@@H](O)[C@H](N)C[C@@H]4N)[C@H](N)[C@@H](O)[C@@H]3O2)c1 (some centres unmarked) [Compound 5.5, 4′,6′-O-2,5-Dimethoxybenzylideneparomomycin]	>512	4 to 8	≧512 μg/ml	>512 µg/mL
NC[C@@H]1O[C@H](O[C@H]2[C@@H](O)[C@H](O[C@@H]3[C@@H](O)[C@H](N)C[C@H](N)[C@H]3O[C@H]3O[C@@H]4CO[C@@H](c5ccccc5[N+](=O)[O-])O[C@H]4[C@H](O)[C@H]3N)O[C@@H]2CO)[C@H](N)[C@@H](O)[C@@H]1O [Compound 5.16, 4′,6′-O-o-Nitrobenzylideneparomomycin]	512	4 to 16	512 µg/mL	>512 µg/mL
NC[C@@H]1O[C@H](O[C@H]2[C@@H](O)[C@H](O[C@@H]3[C@@H](O)[C@H](N)C[C@H](N)[C@H]3O[C@H]3O[C@H](CN)[C@@H](O)[C@H](O)[C@H]3N)O[C@@H]2CO)[C@H](N)[C@@H](O)[C@@H]1O [Neomycin B, reference compound]	4	0.5 to 1	>512 µg/mL	16 to 32 µg/mL
NC[C@@H]1O[C@H](O[C@H]2[C@@H](O)[C@H](O[C@@H]3[C@@H](O)[C@H](N)C[C@H](N)[C@H]3O[C@H]3O[C@@H]4CO[C@@H](C5CCCCC5)O[C@H]4[C@H](O)[C@H]3N)O[C@@H]2CO)[C@H](N)[C@@H](O)[C@@H]1O [Compound 5.27, 4′,6′-O-Cyclohexylmethylideneparomomycin]	>512	32 to 64	>512 µg/mL	>512 µg/mL
COc1ccccc1[C@@H]1OC[C@H]2O[C@H](O[C@H]3[C@H](O[C@@H]4O[C@H](CO)[C@@H](O[C@H]5O[C@@H](CN)[C@@H](O)[C@H](O)[C@H]5N)[C@H]4O)[C@@H](O)[C@H](N)C[C@@H]3N)[C@H](N)[C@@H](O)[C@@H]2O1 [Compound 5.4, 4,6′-O-o-Methoxybenzylideneparomomycin]	>512	8 to 16	>512 µg/mL	>512 µg/mL
NC[C@@H]1O[C@H](O[C@H]2[C@@H](O)[C@H](O[C@@H]3[C@@H](O)[C@H](N)C[C@H](N)[C@H]3O[C@H]3O[C@H](CO)[C@@H](OCc4ccc(C(F)(F)F)cc4)[C@H](O)[C@H]3N)O[C@@H]2CO)[C@H](N)[C@@H](O)[C@@H]1O [Compound 19b, 4′-p-(trifluoromethyl)benzylparomomycin]	>512	8	>512 µg/mL	≧512 μg/ml
CC(=O)O.CC(=O)O.CC(=O)O.NC[C@@H]1O[C@H](O[C@H]2[C@@H](O)[C@H](O[C@@H]3[C@@H](O)[C@H](N)C[C@H](N)[C@H]3O[C@H]3O[C@@H]4COC(c5cccc([N+](=O)[O-])c5)O[C@H]4[C@H](O)[C@H]3N)O[C@@H]2CO)[C@H](N)[C@@H](O)[C@@H]1O (some centres unmarked) [Compound 5.7, 4,6′-O-m-Nitrobenzylideneparomomycin triacetate]	256	2 to 4	256 to 512 µg/mL	>512 µg/mL
